Literature values as cited in patent US10195165B2, “Methods of treating Prader-Willi syndrome” (Ovid Therapeutics Inc., priority 2015, dated 2019).

Assays:
Sigma 1 receptor [1] = biological target: T1, Sigma 1 receptor (Homo sapiens, UniProt Q99720); set-up: Novascreen; settings: 1 μM captodiamine competing with a reference ligand
[2] = tested on: brain-derived neurotrophic factor (BDNF)
[3] = tested on: Brain Derived Neurotrophic Factor (BDNF)
C57B16 mice [4] = settings: 3 and 5 mg/kg intraperitoneal once daily for 7 days
Sigma 1 receptor [5] = biological target: T1, Sigma 1 receptor
5-HT2C = biological target: T2, 5-HT2C (Homo sapiens, UniProt P28335)
T2 sequence (P28335 33-458): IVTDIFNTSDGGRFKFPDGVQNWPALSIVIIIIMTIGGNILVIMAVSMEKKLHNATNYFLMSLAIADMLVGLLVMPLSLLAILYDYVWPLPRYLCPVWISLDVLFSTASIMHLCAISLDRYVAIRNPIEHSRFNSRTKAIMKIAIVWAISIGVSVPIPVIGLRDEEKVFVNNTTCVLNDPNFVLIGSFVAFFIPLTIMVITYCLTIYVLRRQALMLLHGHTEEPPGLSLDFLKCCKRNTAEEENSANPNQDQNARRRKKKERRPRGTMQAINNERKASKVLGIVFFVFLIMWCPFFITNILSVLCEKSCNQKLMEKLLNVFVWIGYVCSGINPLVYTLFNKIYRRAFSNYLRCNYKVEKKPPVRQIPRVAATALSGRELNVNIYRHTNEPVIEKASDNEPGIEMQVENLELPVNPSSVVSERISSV

C57B16 mice [6] = settings: 3 and 5 mg/kg intraperitoneal once daily for 7 days; remark: listed apart in the source
[7] = tested on: subjects with mild to moderate anxiety weaned from benzodiazepine
C57B16 mice [8] = settings: 3 and 5 mg/kg intraperitoneal once daily for 7 days; remark: listed apart in the source
serotonin 5HT2c receptor = biological target: T3, serotonin 5HT2c receptor (Homo sapiens, UniProt P28335); settings: 1 μM captodiamine competing with a reference ligand
T3 construct: Novascreen
T3 sequence (P28335 33-458): T2 sequence (P28335 33-458)

[9] = tested on: Glial Derived Neurotrophic Factor (GDNF)
dopamine D3 [10] = biological target: T4, dopamine D3 (Homo sapiens, UniProt P35462)
Target sequence in this assay (P35462 whole entry): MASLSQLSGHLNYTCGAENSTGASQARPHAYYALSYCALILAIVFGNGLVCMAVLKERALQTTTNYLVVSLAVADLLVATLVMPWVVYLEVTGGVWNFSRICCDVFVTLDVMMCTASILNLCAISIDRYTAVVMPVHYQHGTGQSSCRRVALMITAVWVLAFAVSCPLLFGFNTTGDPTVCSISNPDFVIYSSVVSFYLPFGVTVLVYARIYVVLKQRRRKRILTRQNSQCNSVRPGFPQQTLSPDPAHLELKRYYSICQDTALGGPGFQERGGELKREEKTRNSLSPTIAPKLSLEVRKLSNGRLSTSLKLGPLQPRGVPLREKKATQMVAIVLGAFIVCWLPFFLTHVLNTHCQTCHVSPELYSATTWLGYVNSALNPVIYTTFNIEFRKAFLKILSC

Sigma 2 receptor = biological target: T5, Sigma 2 receptor (Homo sapiens, UniProt Q5BJF2); settings: 1 μM captodiamine competing with a reference ligand
T5 construct: Novascreen
T5 sequence (Q5BJF2 whole entry, species assumed): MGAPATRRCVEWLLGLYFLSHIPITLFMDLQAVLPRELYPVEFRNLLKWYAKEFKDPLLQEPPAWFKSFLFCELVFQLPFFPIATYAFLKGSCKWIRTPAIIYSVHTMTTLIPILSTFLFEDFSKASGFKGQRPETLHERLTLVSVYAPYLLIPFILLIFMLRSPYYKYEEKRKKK

dopamine D3 [11] = biological target: T4, dopamine D3; set-up: Novascreen; settings: 1 μM captodiamine competing with a reference ligand
Target sequence in this assay (P35462 whole entry, species assumed): as the sequence (P35462 whole entry) above

C57B16 mice [12] = settings: 3 and 5 mg/kg intraperitoneal once daily for 7 days; remark: listed apart in the source
C57B16 mice [13] = settings: 3 mg/kg dose, intraperitoneal; one-tailed t-test
C57B16 mice [14] = settings: 3 and 5 mg/kg intraperitoneal once daily for 7 days; remark: listed apart in the source
[15] = tested on: car driving ability of individuals; settings: compared to lorazepam

T1 sequence (Q99720 whole entry, species assumed): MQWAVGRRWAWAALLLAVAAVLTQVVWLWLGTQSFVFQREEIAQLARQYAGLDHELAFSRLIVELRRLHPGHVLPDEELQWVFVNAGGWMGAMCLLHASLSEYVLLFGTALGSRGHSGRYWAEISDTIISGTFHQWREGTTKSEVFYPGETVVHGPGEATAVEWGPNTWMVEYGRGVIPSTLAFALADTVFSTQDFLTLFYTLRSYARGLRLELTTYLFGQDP

SMILES: CCCCSc1ccc(C(SCCN(C)C)c2ccccc2)cc1 (stereo not drawn) [captodiamine, 2-[(4-butylsulfanylphenyl)-phenylmethyl]sulfanyl-N,N-dimethylethanamine]
- percent target inhibition, Sigma 1 receptor (Sigma 1 receptor [1]): greater than 90%
- BDNF protein levels, hypothalamus [2]: increase brain-derived neurotrophic factor (BDNF) protein levels in the hypothalamus
- BDNF expression levels and/or activity, hippocampus ([3]; hippocampus): no effect
- levels of expression of BDNF, hypothalamus ([3]; hypothalamus): significantly increased
- BDNF expression levels and/or activity, prefrontal cortex ([3]; prefrontal cortex): no effect
- pre-pulse inhibition paradigm (C57B16 mice [4]): no effect on the pre-pulse inhibition paradigm
- activity at sigma-1 receptor (Sigma 1 receptor [5]): sigma-1 receptor agonist
- activity at 5-HT2C (5-HT2C): 5-HT2C antagonist
- basal locomotion in the open-field paradigm (C57B16 mice [6]): no influence on basal locomotion
- time in the center of the arena (open-field) (C57B16 mice [6]): significantly more time in the center
- Tyrer Benzodiazepine Withdrawal Symptom Questionnaire (BWSQ) score ([7]; 150 mg/d for 45 days versus placebo, primary outcome): statistically significant difference (p<0.0001; ANCOVA with repeated measures) between the two study groups in favor of captodiamine
- drowsiness score ([7]; 150 mg/d versus placebo): declined from D0
- self-reported anxiety scores ([7]; 150 mg/d versus placebo, weaning and assessment phases): anxiety scores evolved little during the weaning phase and then fell during the assessment phase
- re-emergence of anxiety or withdrawal symptoms after stopping captodiamine ([7]; after treatment stopped at 45 days): no re-emergence of anxiety or evidence for withdrawal symptoms
- severity of benzodiazepine withdrawal symptoms ([7]; compared to placebo, background summary): lower severity of benzodiazepine withdrawal symptoms
- time to immobility in the forced swim test (C57B16 mice [8]): significant increase on time to immobility
- percent target inhibition, serotonin 5HT2c receptor (serotonin 5HT2c receptor): greater than 80%
- levels of expression of GDNF, hypothalamus ([9]; hypothalamus): not in either the hippocampus or the hypothalamus
- levels of expression of GDNF, prefrontal cortex ([9]; prefrontal cortex): significantly decreased
- activity at dopamine D3 (dopamine D3 [10]): dopamine D3 agonist
- percent target inhibition, Sigma 2 receptor (Sigma 2 receptor): greater than 20%
- percent target inhibition, dopamine D3 receptor (dopamine D3 [11]): greater than 80%
- exploring the open arms of the elevated X-maze (C57B16 mice [12]): significantly longer periods exploring the open arms
- time investigating objects during the training phase, Novel Object Recognition Task (C57B16 mice [13]): significantly longer investigating objects during the training phase
- water maze spatial learning task (C57B16 mice [14]): significant pro-cognitive action
- concentration and dexterity when driving [15]: improved the concentration and dexterity
- tendency to drowsiness when driving [15]: without inducing a tendency to drowsiness
